± gives the standard deviation of the averaged measurements.
How the values were obtained:
MDV3100 = compound: CNC(=O)c1ccc(N2C(=S)N(c3ccc(C#N)c(C(F)(F)F)c3)C(=O)C2(C)C)cc1F [MDV3100]; experiment: surviving fraction relative to DMSO-only wells; higher = less growth inhibition; details: exposure time: 5 days
How it was run: (§1)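 Continuous five-day exposure to inhibitors at 0.5, 1, 5, 10, 50, 100, 500 and 1000 nM started 24 hours after log-phase tumour cell lines were seeded at 250–500 cells per well in 384-well plates. Luminescence was read after 10 minutes at room temperature. Viability is given as surviving fraction, meaning CellTiter-Glo luminescence normalised to the median of DMSO-only wells.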

SAPACITABINE [1] = compound: T1, CCCCCCCCCCCCCCCC(=O)Nc1ccn([C@@H]2O[C@H](CO)[C@@H](O)[C@@H]2C#N)c(=O)n1 [SAPACITABINE]; experiment: as above; details: exposure time: 5 days
How it was run: as §1

BI-2536 [2] = compound: T2, CC[C@@H]1C(=O)N(C)c2cnc(Nc3ccc(C(=O)NC4CCN(C)CC4)cc3OC)nc2N1C1CCCC1 [BI-2536]; experiment: as above; details: exposure time: 5 days
How it was run: as §1

AFATINIB [3] = compound: T3, CN(C)C/C=C/C(=O)Nc1cc2c(Nc3ccc(F)c(Cl)c3)ncnc2cc1O[C@H]1CCOC1 [AFATINIB]; experiment: as above; details: exposure time: 5 days
How it was run: as §1

SNX-5422 [4] = compound: T4, CC1(C)CC(=O)c2c(C(F)(F)F)nn(-c3ccc(C(N)=O)c(N[C@H]4CC[C@H](OC(=O)CN)CC4)c3)c2C1 [SNX-5422]; experiment: as above; details: exposure time: 5 days
How it was run: as §1

[5] = compound: Cn1cc(C2=Nc3cc(NC(=O)C(N)C4CCCCC4)cc4c3C2=CNNC4=O)cn1; experiment: as above; details: exposure time: 5 days
How it was run: as §1

CANERTINIB [6] = compound: T5, C=CC(=O)Nc1cc2c(Nc3ccc(F)c(Cl)c3)ncnc2cc1OCCCN1CCOCC1 [CANERTINIB]; experiment: as above; details: exposure time: 5 days
How it was run: as §1

TIOGUANINE [7] = compound: T6, Nc1nc2[nH]cnc2c(=S)[nH]1 [TIOGUANINE]; experiment: as above; details: exposure time: 5 days
How it was run: as §1

SAPACITABINE [8] = compound: T1, SAPACITABINE; experiment: area under dose-response curve of surviving fraction (unscaled, Aref=0) (surviving fraction x log10(nM)); higher = more resistant; details: exposure time: 5 days; dose range 0.5-1000 nM
How it was run: (§2)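 Inhibitor was applied to tumour cell lines at eight concentrations (0.5 to 1000 nM) for five days in 384-well plates. Luminescence from CellTiter-Glo, scaled to DMSO-only wells, gave surviving fractions in three screens per line, and these were fitted by 3-parameter logistic regression with the drc R package. The area under the curve is an unscaled activity area. Aref was 0, and dose was on a log10 scale.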

BI-2536 [9] = compound: T2, BI-2536; experiment: as above; details: exposure time: 5 days; dose range 0.5-1000 nM
How it was run: as §2

AFATINIB [10] = compound: T3, AFATINIB; experiment: as above; details: exposure time: 5 days; dose range 0.5-1000 nM
How it was run: as §2

SNX-5422 [11] = compound: T4, SNX-5422; experiment: as above; details: exposure time: 5 days; dose range 0.5-1000 nM
How it was run: as §2

[12] = compound: Cn1cc(C2=Nc3cc(NC(=O)C(N)C4CCCCC4)cc4c3C2=CNNC4=O)cn1; experiment: as above; details: exposure time: 5 days; dose range 0.5-1000 nM
How it was run: as §2

CANERTINIB [13] = compound: T5, CANERTINIB; experiment: as above; details: exposure time: 5 days; dose range 0.5-1000 nM
How it was run: as §2

TIOGUANINE [14] = compound: T6, TIOGUANINE; experiment: as above; details: exposure time: 5 days; dose range 0.5-1000 nM
How it was run: as §2

**Q.** SKBR3 BREAST was tested. Which surviving fraction (MDV3100; 0.5 nM) did it give?
**A.** The surviving fraction was 1.02 ± 0.093.

**Q.** What about the surviving fraction (MDV3100; 1 nM) of the same test system?
**A.** The surviving fraction was 1.09 ± 0.12.

**Q.** What about the surviving fraction (MDV3100; 5 nM) of the same test system?
**A.** The surviving fraction was 1.11 ± 0.069.

**Q.** What about the surviving fraction (MDV3100; 10 nM) of the same test system?
**A.** The surviving fraction was 1.1 ± 0.17.

**Q.** And the surviving fraction (MDV3100; 50 nM)?
**A.** The surviving fraction was 1 ± 0.11.

**Q.** And the surviving fraction (MDV3100; 100 nM)?
**A.** The surviving fraction was 1.052 ± 0.0065.

**Q.** What about the surviving fraction (MDV3100; 500 nM) of the same test system?
**A.** Its surviving fraction is 0.971 ± 0.046.

**Q.** What about the surviving fraction (MDV3100; 1000 nM) of the same test system?
**A.** Its surviving fraction is 1.09 ± 0.18.

**Q.** And the surviving fraction (SAPACITABINE [1]; 0.5 nM)?
**A.** The surviving fraction was 0.873 ± 0.076.

**Q.** And the surviving fraction (SAPACITABINE [1]; 1 nM)?
**A.** Its surviving fraction is 0.696 ± 0.054.

**Q.** What about the surviving fraction (SAPACITABINE [1]; 5 nM) of the same test system?
**A.** The surviving fraction was 0.756 ± 0.012.

**Q.** What about the surviving fraction (SAPACITABINE [1]; 10 nM) of the same test system?
**A.** The surviving fraction was 0.828 ± 0.046.

**Q.** What about the surviving fraction (SAPACITABINE [1]; 50 nM) of the same test system?
**A.** The surviving fraction was 0.791 ± 0.15.

**Q.** What about the surviving fraction (SAPACITABINE [1]; 100 nM) of the same test system?
**A.** Its surviving fraction is 0.572 ± 0.096.

**Q.** What about the surviving fraction (SAPACITABINE [1]; 500 nM) of the same test system?
**A.** Its surviving fraction is 0.386 ± 0.084.

**Q.** And the surviving fraction (SAPACITABINE [1]; 1000 nM)?
**A.** The surviving fraction was 0.391 ± 0.051.

**Q.** And the surviving fraction (BI-2536 [2]; 0.5 nM)?
**A.** The surviving fraction was 0.914 ± 0.12.

**Q.** And the surviving fraction (BI-2536 [2]; 1 nM)?
**A.** Its surviving fraction is 0.363 ± 0.043.

**Q.** And the surviving fraction (BI-2536 [2]; 5 nM)?
**A.** Its surviving fraction is 0.158 ± 0.026.

**Q.** What about the surviving fraction (BI-2536 [2]; 10 nM) of the same test system?
**A.** Its surviving fraction is 0.189 ± 0.02.

**Q.** What about the surviving fraction (BI-2536 [2]; 50 nM) of the same test system?
**A.** Its surviving fraction is 0.255 ± 0.063.

**Q.** What about the surviving fraction (BI-2536 [2]; 100 nM) of the same test system?
**A.** Its surviving fraction is 0.356 ± 0.045.

**Q.** What about the surviving fraction (BI-2536 [2]; 500 nM) of the same test system?
**A.** The surviving fraction was 0.321 ± 0.018.

**Q.** What about the surviving fraction (BI-2536 [2]; 1000 nM) of the same test system?
**A.** Its surviving fraction is 0.301 ± 0.025.

**Q.** And the surviving fraction (AFATINIB [3]; 0.5 nM)?
**A.** Its surviving fraction is 0.866 ± 0.033.

**Q.** And the surviving fraction (AFATINIB [3]; 1 nM)?
**A.** The surviving fraction was 0.699 ± 0.049.

**Q.** And the surviving fraction (AFATINIB [3]; 5 nM)?
**A.** The surviving fraction was 0.322 ± 0.015.

**Q.** What about the surviving fraction (AFATINIB [3]; 10 nM) of the same test system?
**A.** Its surviving fraction is 0.265 ± 0.013.

**Q.** And the surviving fraction (AFATINIB [3]; 50 nM)?
**A.** Its surviving fraction is 0.167 ± 0.011.

**Q.** What about the surviving fraction (AFATINIB [3]; 100 nM) of the same test system?
**A.** The surviving fraction was 0.131 ± 0.007.

**Q.** And the surviving fraction (AFATINIB [3]; 500 nM)?
**A.** Its surviving fraction is 0.119 ± 0.0076.

**Q.** And the surviving fraction (AFATINIB [3]; 1000 nM)?
**A.** Its surviving fraction is 0.122 ± 0.006.

**Q.** And the surviving fraction (SNX-5422 [4]; 0.5 nM)?
**A.** The surviving fraction was 0.866 ± 0.051.

**Q.** What about the surviving fraction (SNX-5422 [4]; 1 nM) of the same test system?
**A.** The surviving fraction was 0.932 ± 0.25.

**Q.** What about the surviving fraction (SNX-5422 [4]; 5 nM) of the same test system?
**A.** The surviving fraction was 0.93 ± 0.068.

**Q.** And the surviving fraction (SNX-5422 [4]; 10 nM)?
**A.** The surviving fraction was 0.841 ± 0.051.

**Q.** And the surviving fraction (SNX-5422 [4]; 50 nM)?
**A.** Its surviving fraction is 0.439 ± 0.024.

**Q.** And the surviving fraction (SNX-5422 [4]; 100 nM)?
**A.** Its surviving fraction is 0.432 ± 0.035.

**Q.** And the surviving fraction (SNX-5422 [4]; 500 nM)?
**A.** The surviving fraction was 0.192 ± 0.01.

**Q.** What about the surviving fraction (SNX-5422 [4]; 1000 nM) of the same test system?
**A.** Its surviving fraction is 0.181 ± 0.002.

**Q.** And the surviving fraction ([5]; 0.5 nM)?
**A.** Its surviving fraction is 0.927 ± 0.058.

**Q.** And the surviving fraction ([5]; 1 nM)?
**A.** The surviving fraction was 0.948 ± 0.086.

**Q.** And the surviving fraction ([5]; 5 nM)?
**A.** Its surviving fraction is 0.989 ± 0.088.

**Q.** What about the surviving fraction ([5]; 10 nM) of the same test system?
**A.** The surviving fraction was 1 ± 0.073.

**Q.** And the surviving fraction ([5]; 50 nM)?
**A.** Its surviving fraction is 0.736 ± 0.056.

**Q.** And the surviving fraction ([5]; 100 nM)?
**A.** The surviving fraction was 0.459 ± 0.064.

**Q.** What about the surviving fraction ([5]; 500 nM) of the same test system?
**A.** The surviving fraction was 0.206 ± 0.011.

**Q.** What about the surviving fraction ([5]; 1000 nM) of the same test system?
**A.** Its surviving fraction is 0.224 ± 0.024.

**Q.** And the surviving fraction (CANERTINIB [6]; 0.5 nM)?
**A.** Its surviving fraction is 0.831 ± 0.019.

**Q.** What about the surviving fraction (CANERTINIB [6]; 1 nM) of the same test system?
**A.** Its surviving fraction is 0.79 ± 0.017.

**Q.** And the surviving fraction (CANERTINIB [6]; 5 nM)?
**A.** The surviving fraction was 0.68 ± 0.051.

**Q.** And the surviving fraction (CANERTINIB [6]; 10 nM)?
**A.** The surviving fraction was 0.6073 ± 0.0035.

**Q.** What about the surviving fraction (CANERTINIB [6]; 50 nM) of the same test system?
**A.** The surviving fraction was 0.48 ± 0.025.

**Q.** What about the surviving fraction (CANERTINIB [6]; 100 nM) of the same test system?
**A.** The surviving fraction was 0.4 ± 0.024.

**Q.** What about the surviving fraction (CANERTINIB [6]; 500 nM) of the same test system?
**A.** The surviving fraction was 0.224 ± 0.0067.

**Q.** And the surviving fraction (CANERTINIB [6]; 1000 nM)?
**A.** The surviving fraction was 0.176 ± 0.0098.

**Q.** And the surviving fraction (TIOGUANINE [7]; 0.5 nM)?
**A.** Its surviving fraction is 1.03 ± 0.087.

**Q.** And the surviving fraction (TIOGUANINE [7]; 1 nM)?
**A.** The surviving fraction was 0.956 ± 0.13.

**Q.** And the surviving fraction (TIOGUANINE [7]; 5 nM)?
**A.** The surviving fraction was 0.946 ± 0.13.

**Q.** And the surviving fraction (TIOGUANINE [7]; 10 nM)?
**A.** Its surviving fraction is 1.04 ± 0.17.

**Q.** What about the surviving fraction (TIOGUANINE [7]; 50 nM) of the same test system?
**A.** The surviving fraction was 1.11 ± 0.11.

**Q.** And the surviving fraction (TIOGUANINE [7]; 100 nM)?
**A.** Its surviving fraction is 0.939 ± 0.03.

**Q.** And the surviving fraction (TIOGUANINE [7]; 500 nM)?
**A.** Its surviving fraction is 1.08 ± 0.17.

**Q.** And the surviving fraction (TIOGUANINE [7]; 1000 nM)?
**A.** Its surviving fraction is 1.05 ± 0.045.

**Q.** What about the “area under dose-response curve” value (SAPACITABINE [8]) of the same test system?
**A.** Its value is 2.23.

**Q.** And the “area under dose-response curve” value (BI-2536 [9])?
**A.** Its value is 0.991.

**Q.** And the “area under dose-response curve” value (AFATINIB [10])?
**A.** Its value is 0.986.

**Q.** What about the “area under dose-response curve” value (SNX-5422 [11]) of the same test system?
**A.** The value was 2.08.

**Q.** What about the “area under dose-response curve” value [12] of the same test system?
**A.** Its value is 2.39.

**Q.** And the “area under dose-response curve” value (CANERTINIB [13])?
**A.** Its value is 1.75.

**Q.** And the “area under dose-response curve” value (TIOGUANINE [14])?
**A.** Its value is 3.36.
